Results reported in ChEMBL document CHEMBL5230136, “A review: Biologically active 3,4-heterocycle-fused coumarins” (Eur J Med Chem, 2021).

Key:
Fusarium oxysporum = test: Antifungal activity against Fusarium oxysporum assessed as zone of inhibition at 20 mg/ml; type: functional; conditions: read-out: IZ
Aspergillus flavus = test: Antifungal activity against Aspergillus flavus assessed as zone of inhibition at 20 mg/ml; type: functional; conditions: read-out: IZ
Escherichia coli [1] = test: Antibacterial activity against Escherichia coli assessed as zone of inhibition at 20 mg/ml; type: functional; conditions: read-out: IZ
Scopulariopsis = test: Antifungal activity against Scopulariopsis assessed as zone of inhibition at 20 mg/ml; type: functional; conditions: read-out: IZ
Trichophyton rubrum = test: Antifungal activity against Trichophyton rubrum assessed as zone of inhibition at 20 mg/ml; type: functional; conditions: read-out: IZ
Staphylococcus aureus [2] = test: Antibacterial activity against Staphylococcus aureus assessed as zone of inhibition at 20 mg/ml; type: functional; conditions: read-out: IZ
Micrococcus luteus = test: Antibacterial activity against Micrococcus luteus assessed as zone of inhibition at 20 mg/ml; type: functional; conditions: read-out: IZ
Serratia marcescens [3] = test: Antibacterial activity against Serratia marcescens assessed as zone of inhibition at 20 mg/ml; type: functional; conditions: read-out: IZ
Bacillus cereus [4] = test: Antibacterial activity against Bacillus cereus assessed as zone of inhibition at 20 mg/ml; type: functional; conditions: read-out: IZ
Geotrichum candidum = test: Antifungal activity against Geotrichum candidum assessed as zone of inhibition at 20 mg/ml; type: functional; conditions: read-out: IZ
Candida albicans = test: Antifungal activity against Candida albicans assessed as zone of inhibition at 20 mg/ml; type: functional; conditions: read-out: IZ
Pseudomonas aeruginosa = test: Antibacterial activity against Pseudomonas aeruginosa assessed as zone of inhibition at 20 mg/ml; type: functional; conditions: read-out: IZ
[5] = target: Dopamine receptors; D2 & D4 (Homo sapiens, UniProt P14416+P21917); test: Binding affinity to human D2/D4 receptor assessed as inhibition constant; type: protein assay
Proteus mirabilis = test: Antibacterial activity against Proteus mirabilis assessed as zone of inhibition; type: functional
Bacillus cereus [6] = test: Antibacterial activity against Bacillus cereus assessed as zone of inhibition; type: functional
Staphylococcus aureus [7] = test: Antibacterial activity against Staphylococcus aureus assessed as zone of inhibition; type: functional
Serratia marcescens [8] = test: Antibacterial activity against Serratia marcescens assessed as zone of inhibition; type: functional
Penicillium chrysogenum = test: Antifungal activity against Penicillium chrysogenum assessed as zone of inhibition; type: functional
Aspergillus ochraceus = test: Antifungal activity against Aspergillus ochraceus assessed as zone of inhibition; type: functional
Staphylococcus aureus [9] = test: Antibacterial activity against Staphylococcus aureus assessed as zone of inhibition at 100 ug/ml; type: functional; conditions: read-out: IZ
Bacillus subtilis = test: Antibacterial activity against Bacillus subtilis assessed as zone of inhibition at 100 ug/ml; type: functional; conditions: read-out: IZ
Salmonella typhimurium = test: Antibacterial activity against Salmonella typhimurium DT104 assessed as zone of inhibition at 100 ug/ml; type: functional, Salmonella enterica subsp. enterica serovar Typhimurium; conditions: Salmonella enterica, read-out: IZ
Escherichia coli [10] = test: Antibacterial activity against Escherichia coli assessed as zone of inhibition at 100 ug/ml; type: functional; conditions: read-out: IZ

SMILES | zone of inhibition at 20000 µg/mL (Fusarium oxysporum) [mm] | zone of inhibition at 20000 µg/mL (Aspergillus flavus) [mm] | zone of inhibition at 20000 µg/mL (Escherichia coli [1]) [mm] | zone of inhibition at 20000 µg/mL (Scopulariopsis) [mm] | zone of inhibition at 20000 µg/mL (Trichophyton rubrum) [mm] | zone of inhibition at 20000 µg/mL (Staphylococcus aureus [2]) [mm] | zone of inhibition at 20000 µg/mL (Micrococcus luteus) [mm] | zone of inhibition at 20000 µg/mL (Serratia marcescens [3]) [mm] | zone of inhibition at 20000 µg/mL (Bacillus cereus [4]) [mm] | zone of inhibition at 20000 µg/mL (Geotrichum candidum) [mm] | zone of inhibition at 20000 µg/mL (Candida albicans) [mm] | zone of inhibition at 20000 µg/mL (Pseudomonas aeruginosa) [mm] | inhibition zone (IZ) (Proteus mirabilis) [mm] | inhibition zone (IZ) (Bacillus cereus [6]) [mm] | inhibition zone (IZ) (Staphylococcus aureus [7]) [mm] | inhibition zone (IZ) (Serratia marcescens [8]) [mm] | inhibition zone (IZ) (Penicillium chrysogenum) [mm] | inhibition zone (IZ) (Aspergillus ochraceus) [mm] | other results
O=C(N[C@H](CO)[C@H](O)c1ccc([N+](=O)[O-])cc1)C(Cl)Cl [CHLORAMPHENICOL] | 28 | 44 | 18 | 20 | 36 | 18 | 20 | 20 | 22 | 24 | 20 | 18 |  |  |  |  |  |  | 
COc1ccc2c3c(c(=O)oc2c1)CN(Cc1ccc(Cl)c(Cl)c1)CC3 |  |  |  |  |  |  |  |  |  |  |  |  |  |  |  |  |  |  | Ki [5]: 95 nM
CCOC(=O)c1sc2c(c1NC(=O)CN1CCOCC1)c(=O)oc1ccccc12 | 0 | 0 | 0 | 0 | 0 | 0 | 0 | 0 | 0 | 0 | 0 | 9 |  |  |  |  |  |  | 
CC1c2c(c3ccccc3oc2=O)Oc2ncn3nc(CCl)nc3c21 (stereo unspecified) |  |  |  |  |  |  |  |  |  |  |  |  | 20 | 22 | 20 | 21 | 19 | 18 | 
CCOC(=O)c1sc2c(c1NC(=O)CNc1ccccc1)c(=O)oc1ccccc12 | 0 | 12 | 0 | 10 | 10 | 0 | 0 | 0 | 0 | 11 | 13 | 0 |  |  |  |  |  |  | 
COc1ccc(CN2CCc3c(c(=O)oc4cc(OC)ccc34)C2)cc1 |  |  |  |  |  |  |  |  |  |  |  |  |  |  |  |  |  |  | Ki [5]: 69 nM
Cc1ccc2c(c1)oc(=O)c1c(-c3cn(-c4ccccc4)nc3-c3ccccc3)cc(-c3c(O)c(Cl)c(O)c(Cl)c3Cl)nc12 |  |  | 22 |  |  | 22 |  |  |  |  |  |  |  |  |  |  |  |  | zone of inhibition at 100 µg/mL (Staphylococcus aureus [9]): 18 mm; zone of inhibition at 100 µg/mL (Bacillus subtilis): 22 mm; zone of inhibition at 100 µg/mL (Salmonella typhimurium): 20 mm; zone of inhibition at 100 µg/mL (Escherichia coli [10]): 22 mm
CC1C(C#N)=C(N)Oc2c1c(=O)oc1ccccc21 (stereo unspecified) |  |  |  |  |  |  |  |  |  |  |  |  | 20 | 19 | 18 | 18 | 18 | 16 | 
O=c1oc2ccccc2c2c1C(c1ccc(Cl)cc1)c1c(ncn3nc(CCl)nc13)O2 (stereo unspecified) |  |  |  |  |  |  |  |  |  |  |  |  | 22 | 22 | 23 | 23 | 19 | 19 | 
COc1ccc2c3c(c(=O)oc2c1)CN(Cc1ccc(F)cc1)CC3 |  |  |  |  |  |  |  |  |  |  |  |  |  |  |  |  |  |  | Ki [5]: 1350 nM
NNC(=O)c1sc2c(c1N)c(=O)oc1ccccc12 | 16 | 10 | 0 | 13 | 0 | 10 | 0 | 11 | 0 | 13 | 14 | 10 |  |  |  |  |  |  | 
CC1c2c(c3ccccc3oc2=O)Oc2ncn3nc(-c4ccccc4)nc3c21 (stereo unspecified) |  |  |  |  |  |  |  |  |  |  |  |  | 19 | 22 | 20 | 20 | 17 | 19 | 
